{"source": "patent US12606520B2", "about": "“Calpain-2 inhibitor compounds and methods of treatment” (WESTERN UNIVERSITY OF HEALTH SCIENCES, priority 2020, dated 2026)", "molecular_target": "T1, calpain-2 (Rattus norvegicus, UniProt Q07009)", "T1 construct": "from tissue; host or cells: rat brain after TBI", "T1 sequence (Q07009 1-700)": "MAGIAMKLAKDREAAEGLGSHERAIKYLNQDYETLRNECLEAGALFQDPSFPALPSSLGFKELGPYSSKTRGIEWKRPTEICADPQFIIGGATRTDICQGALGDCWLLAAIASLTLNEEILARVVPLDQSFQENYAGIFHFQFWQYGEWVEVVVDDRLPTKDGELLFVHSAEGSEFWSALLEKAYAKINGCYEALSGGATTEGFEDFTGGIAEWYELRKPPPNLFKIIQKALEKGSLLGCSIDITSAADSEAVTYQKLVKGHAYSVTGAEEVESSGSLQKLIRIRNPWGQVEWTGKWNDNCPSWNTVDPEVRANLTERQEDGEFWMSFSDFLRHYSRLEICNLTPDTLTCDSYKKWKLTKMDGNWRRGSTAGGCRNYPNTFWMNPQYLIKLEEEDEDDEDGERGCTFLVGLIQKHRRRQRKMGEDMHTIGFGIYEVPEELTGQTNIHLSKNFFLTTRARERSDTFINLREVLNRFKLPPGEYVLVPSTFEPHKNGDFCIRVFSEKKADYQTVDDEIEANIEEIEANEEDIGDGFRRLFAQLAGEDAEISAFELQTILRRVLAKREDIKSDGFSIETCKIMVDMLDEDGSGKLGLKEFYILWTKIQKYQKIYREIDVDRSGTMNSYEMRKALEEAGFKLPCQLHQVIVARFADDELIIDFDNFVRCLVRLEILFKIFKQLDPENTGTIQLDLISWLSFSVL", "T1 sequence (Q64537 1-270 partner)": "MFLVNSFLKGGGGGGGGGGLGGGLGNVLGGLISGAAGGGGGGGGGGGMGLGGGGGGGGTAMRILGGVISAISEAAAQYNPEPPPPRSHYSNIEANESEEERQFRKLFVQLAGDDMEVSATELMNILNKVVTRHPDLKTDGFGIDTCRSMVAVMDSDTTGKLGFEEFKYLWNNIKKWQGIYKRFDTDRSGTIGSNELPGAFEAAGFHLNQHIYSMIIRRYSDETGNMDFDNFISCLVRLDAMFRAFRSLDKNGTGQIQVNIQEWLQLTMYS", "assay": "Calpain-2 activity in brain after TBI in rats", "assay_type": "in vivo", "conditions": "1 mg/kg i.p. at 1 h and 8 h after TBI, 24 h after TBI", "protocol": "We also performed the same model of TBI in male and female mice and in male and female rats. In all cases, NA184 was injected i.p. at 1 mg/kg. For the rat experiments, NA184 was injected twice at 1 h and 8 h after TBI. Animals were sacrificed 24 h after TBI and calpain activity was assayed in brain and cell death was analyzed in cortex. […] In addition, there was a highly significant correlation between calpain-2 activity and cell death in rats (FIG. 23). R^2 was 0.61 and p<0.005.", "data": [{"smiles": "CCC(NC(=O)[C@H](CC(C)C)NC(=O)NCc1ccccc1)C(=O)C(=O)NCc1cccc(Cl)c1OC", "note": "(stereo partly drawn) [NA184, (2S)-2-(3-benzylureido)-N-(1-((3-chloro-2-methoxybenzyl)amino)-1,2-dioxopentan-3-yl)-4-methylpentanamide]", "values": [{"measurement": "Calpain-2 inhibition in brain, male and female rats", "value": "significantly inhibited calpain-2"}]}]}
